From ChEMBL document CHEMBL3991601, “The target landscape of clinical kinase drugs” (Science, 2017)
Activity calls are given as the source filed them. On the calls: in the data inactive means no Kd found up to 30 µM.

Legend:
[1] = target: T1, Cyclin-dependent kinase-like 5 (Homo sapiens, UniProt O76039)
T1 sequence (O76039 whole entry): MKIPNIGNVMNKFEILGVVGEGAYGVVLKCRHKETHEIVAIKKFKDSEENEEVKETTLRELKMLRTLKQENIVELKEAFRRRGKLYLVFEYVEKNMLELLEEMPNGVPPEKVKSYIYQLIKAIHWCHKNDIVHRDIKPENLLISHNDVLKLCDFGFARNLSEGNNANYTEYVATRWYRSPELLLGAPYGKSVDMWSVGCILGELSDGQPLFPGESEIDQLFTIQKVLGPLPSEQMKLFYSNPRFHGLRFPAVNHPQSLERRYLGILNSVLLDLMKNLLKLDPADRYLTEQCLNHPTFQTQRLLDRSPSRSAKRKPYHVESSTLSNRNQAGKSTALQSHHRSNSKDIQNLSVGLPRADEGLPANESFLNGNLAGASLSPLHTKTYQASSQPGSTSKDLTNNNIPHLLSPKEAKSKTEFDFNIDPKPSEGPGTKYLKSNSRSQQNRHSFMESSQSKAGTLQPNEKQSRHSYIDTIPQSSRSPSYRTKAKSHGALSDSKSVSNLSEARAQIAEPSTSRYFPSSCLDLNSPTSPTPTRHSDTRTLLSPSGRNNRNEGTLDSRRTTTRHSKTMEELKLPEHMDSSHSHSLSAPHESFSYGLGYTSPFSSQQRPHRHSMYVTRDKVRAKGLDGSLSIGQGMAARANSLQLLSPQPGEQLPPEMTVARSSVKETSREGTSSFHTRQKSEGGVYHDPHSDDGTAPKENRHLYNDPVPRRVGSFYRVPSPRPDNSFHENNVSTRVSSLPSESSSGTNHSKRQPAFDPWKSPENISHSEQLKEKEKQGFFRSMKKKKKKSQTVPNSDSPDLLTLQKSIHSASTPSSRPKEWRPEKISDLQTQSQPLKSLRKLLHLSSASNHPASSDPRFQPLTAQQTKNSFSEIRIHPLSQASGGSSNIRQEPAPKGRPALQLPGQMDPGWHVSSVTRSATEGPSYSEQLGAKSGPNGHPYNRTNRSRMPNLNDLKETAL

[2] = target: Serine/threonine-protein kinase PLK1 (Homo sapiens, UniProt P53350)
Chain of Serine/threonine-protein kinase PLK1 (P53350 whole entry): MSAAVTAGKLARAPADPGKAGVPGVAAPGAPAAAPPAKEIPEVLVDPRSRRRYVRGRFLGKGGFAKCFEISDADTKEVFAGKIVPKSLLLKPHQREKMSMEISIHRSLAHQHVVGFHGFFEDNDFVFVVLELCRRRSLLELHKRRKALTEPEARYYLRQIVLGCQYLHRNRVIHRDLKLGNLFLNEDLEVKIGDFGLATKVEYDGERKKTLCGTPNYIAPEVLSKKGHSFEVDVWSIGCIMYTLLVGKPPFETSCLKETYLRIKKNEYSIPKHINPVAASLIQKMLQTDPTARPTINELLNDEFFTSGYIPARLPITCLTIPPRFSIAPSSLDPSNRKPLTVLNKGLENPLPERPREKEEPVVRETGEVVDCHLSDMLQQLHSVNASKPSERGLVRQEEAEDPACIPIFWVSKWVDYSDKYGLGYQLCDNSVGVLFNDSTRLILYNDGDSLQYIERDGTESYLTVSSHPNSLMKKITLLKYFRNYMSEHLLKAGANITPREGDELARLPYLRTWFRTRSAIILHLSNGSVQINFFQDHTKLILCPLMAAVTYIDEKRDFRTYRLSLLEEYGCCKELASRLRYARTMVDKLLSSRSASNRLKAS

[3] = target: Misshapen-like kinase 1 (Homo sapiens, UniProt Q8N4C8)
Chain of Misshapen-like kinase 1 (Q8N4C8 whole entry): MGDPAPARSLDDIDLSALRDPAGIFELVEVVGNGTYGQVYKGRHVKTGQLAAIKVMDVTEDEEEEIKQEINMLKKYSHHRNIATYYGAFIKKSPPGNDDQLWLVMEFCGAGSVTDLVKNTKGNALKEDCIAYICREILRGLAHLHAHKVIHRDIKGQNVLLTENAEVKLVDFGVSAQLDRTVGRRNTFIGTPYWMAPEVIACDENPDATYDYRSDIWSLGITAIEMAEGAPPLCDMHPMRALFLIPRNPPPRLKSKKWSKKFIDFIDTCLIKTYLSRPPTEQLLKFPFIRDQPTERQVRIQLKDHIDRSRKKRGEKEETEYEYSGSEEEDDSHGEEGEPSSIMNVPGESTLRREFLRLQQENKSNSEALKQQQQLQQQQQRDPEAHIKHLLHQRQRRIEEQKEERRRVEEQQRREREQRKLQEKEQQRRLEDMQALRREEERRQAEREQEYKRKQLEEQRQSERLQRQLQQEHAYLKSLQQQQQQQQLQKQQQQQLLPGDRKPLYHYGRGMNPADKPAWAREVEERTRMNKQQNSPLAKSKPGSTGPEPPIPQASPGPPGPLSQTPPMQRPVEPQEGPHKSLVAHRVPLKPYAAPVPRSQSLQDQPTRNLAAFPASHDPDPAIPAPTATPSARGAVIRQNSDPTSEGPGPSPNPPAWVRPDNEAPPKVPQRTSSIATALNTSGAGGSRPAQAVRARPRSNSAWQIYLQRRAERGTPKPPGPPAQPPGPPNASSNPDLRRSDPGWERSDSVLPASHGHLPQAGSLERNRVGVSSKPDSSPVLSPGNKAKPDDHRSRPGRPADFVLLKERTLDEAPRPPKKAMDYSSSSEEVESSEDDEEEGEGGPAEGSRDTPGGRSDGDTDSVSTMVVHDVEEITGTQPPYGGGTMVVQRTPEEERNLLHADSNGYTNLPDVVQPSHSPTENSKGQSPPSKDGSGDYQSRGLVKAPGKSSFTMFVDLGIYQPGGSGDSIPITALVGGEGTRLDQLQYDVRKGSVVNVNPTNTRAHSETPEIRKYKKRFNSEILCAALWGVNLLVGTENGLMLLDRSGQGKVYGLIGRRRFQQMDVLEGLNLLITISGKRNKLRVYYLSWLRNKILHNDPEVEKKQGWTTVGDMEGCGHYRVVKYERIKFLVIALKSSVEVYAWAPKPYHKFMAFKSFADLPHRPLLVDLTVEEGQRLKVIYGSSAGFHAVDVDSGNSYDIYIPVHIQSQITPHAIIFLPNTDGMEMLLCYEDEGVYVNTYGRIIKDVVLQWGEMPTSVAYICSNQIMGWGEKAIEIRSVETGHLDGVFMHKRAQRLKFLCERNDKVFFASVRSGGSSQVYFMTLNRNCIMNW

[4] = target: Serine/threonine-protein kinase N3 (Homo sapiens, UniProt Q6P5Z2)
Chain of Serine/threonine-protein kinase N3 (Q6P5Z2 whole entry): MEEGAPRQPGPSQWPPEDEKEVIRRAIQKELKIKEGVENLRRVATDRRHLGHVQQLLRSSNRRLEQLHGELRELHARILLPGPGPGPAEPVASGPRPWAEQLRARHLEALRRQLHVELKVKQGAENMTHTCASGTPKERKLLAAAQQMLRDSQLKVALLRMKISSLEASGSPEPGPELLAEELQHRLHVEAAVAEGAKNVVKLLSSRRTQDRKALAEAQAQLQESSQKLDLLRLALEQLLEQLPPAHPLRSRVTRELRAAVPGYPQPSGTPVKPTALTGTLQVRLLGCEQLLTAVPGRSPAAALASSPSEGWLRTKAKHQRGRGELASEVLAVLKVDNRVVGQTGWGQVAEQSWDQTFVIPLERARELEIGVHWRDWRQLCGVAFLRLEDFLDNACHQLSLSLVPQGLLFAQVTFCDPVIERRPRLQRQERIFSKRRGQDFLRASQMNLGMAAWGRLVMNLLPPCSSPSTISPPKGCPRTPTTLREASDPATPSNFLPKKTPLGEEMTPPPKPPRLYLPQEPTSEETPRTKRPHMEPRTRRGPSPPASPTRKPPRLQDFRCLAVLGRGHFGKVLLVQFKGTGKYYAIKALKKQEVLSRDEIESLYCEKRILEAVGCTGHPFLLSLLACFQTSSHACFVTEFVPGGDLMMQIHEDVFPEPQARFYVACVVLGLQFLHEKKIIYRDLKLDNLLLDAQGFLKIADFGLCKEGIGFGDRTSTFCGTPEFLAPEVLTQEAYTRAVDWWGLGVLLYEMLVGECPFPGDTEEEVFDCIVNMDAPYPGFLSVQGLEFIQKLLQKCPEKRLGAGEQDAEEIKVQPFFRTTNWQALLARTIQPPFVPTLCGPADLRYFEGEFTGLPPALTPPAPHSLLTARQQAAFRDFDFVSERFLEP

[5] = target: Serine/threonine-protein kinase ATR (Homo sapiens, UniProt Q13535)
[6] = target: T2, Tyrosine-protein kinase Mer (Homo sapiens, UniProt Q12866)
T2 sequence (Q12866 whole entry): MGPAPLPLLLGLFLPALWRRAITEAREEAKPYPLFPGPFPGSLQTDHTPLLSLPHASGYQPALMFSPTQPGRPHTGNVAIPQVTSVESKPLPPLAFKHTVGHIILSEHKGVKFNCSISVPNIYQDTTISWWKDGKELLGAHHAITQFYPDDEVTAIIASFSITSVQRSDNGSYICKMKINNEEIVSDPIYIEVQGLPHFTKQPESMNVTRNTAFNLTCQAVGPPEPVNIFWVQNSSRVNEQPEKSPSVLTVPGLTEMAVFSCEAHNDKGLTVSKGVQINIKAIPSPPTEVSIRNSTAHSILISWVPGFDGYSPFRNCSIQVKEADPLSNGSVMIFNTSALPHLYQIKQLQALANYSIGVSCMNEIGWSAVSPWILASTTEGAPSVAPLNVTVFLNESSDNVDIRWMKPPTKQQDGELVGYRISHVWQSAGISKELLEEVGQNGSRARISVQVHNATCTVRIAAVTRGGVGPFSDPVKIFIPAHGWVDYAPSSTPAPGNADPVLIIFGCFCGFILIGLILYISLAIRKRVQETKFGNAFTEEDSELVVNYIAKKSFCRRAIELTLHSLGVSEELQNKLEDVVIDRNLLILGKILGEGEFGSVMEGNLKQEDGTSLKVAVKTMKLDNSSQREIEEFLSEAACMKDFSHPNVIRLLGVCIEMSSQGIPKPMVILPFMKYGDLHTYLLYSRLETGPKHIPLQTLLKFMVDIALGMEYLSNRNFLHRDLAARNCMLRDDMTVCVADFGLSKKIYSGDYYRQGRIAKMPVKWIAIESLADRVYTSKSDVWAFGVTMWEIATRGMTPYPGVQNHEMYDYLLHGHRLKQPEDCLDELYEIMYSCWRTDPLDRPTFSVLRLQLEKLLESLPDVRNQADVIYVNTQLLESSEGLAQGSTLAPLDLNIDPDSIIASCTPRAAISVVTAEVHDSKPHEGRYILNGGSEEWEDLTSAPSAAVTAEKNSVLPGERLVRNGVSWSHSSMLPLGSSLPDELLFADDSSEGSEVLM

[7] = target: T3, Dual specificity protein kinase TTK (Homo sapiens, UniProt P33981)
T3 sequence (P33981 whole entry): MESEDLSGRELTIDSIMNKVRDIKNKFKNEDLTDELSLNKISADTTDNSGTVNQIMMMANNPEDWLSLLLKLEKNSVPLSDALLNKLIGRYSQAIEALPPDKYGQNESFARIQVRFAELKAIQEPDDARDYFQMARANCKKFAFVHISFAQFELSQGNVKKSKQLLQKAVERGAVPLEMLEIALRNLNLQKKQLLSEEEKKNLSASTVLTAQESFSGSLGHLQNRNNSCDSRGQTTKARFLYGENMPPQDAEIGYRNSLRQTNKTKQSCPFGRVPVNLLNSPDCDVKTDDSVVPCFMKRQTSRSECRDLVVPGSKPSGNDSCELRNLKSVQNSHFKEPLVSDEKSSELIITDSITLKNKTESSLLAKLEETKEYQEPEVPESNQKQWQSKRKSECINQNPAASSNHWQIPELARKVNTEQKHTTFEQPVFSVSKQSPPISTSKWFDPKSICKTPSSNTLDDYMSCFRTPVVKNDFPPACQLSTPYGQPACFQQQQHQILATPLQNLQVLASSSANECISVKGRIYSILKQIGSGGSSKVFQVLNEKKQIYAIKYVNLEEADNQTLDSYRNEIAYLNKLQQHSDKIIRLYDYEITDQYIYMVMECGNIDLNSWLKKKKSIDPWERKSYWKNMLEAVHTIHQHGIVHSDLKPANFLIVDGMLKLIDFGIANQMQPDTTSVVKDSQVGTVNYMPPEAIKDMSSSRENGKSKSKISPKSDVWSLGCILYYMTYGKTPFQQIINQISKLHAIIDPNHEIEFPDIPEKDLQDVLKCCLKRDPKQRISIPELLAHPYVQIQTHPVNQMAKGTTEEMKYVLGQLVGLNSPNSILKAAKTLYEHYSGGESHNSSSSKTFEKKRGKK

Compound | Kd [1] | Kd [2] | Kd [3] | Kd [4] | Kd [5] | Kd [6] | Kd [7]
Cc1cc(Nc2ncc(Cl)c(Nc3ccccc3S(=O)(=O)C(C)C)n2)c(OC(C)C)cc1C1CCNCC1 [CERITINIB] | > 30 µM (inactive) | > 30 µM (inactive) | > 30 µM (inactive) | > 30 µM (inactive) | > 30 µM (inactive) | > 30 µM (inactive) | > 30 µM (inactive)
CC(C)(C)c1nc(-c2cccc(NS(=O)(=O)c3c(F)cccc3F)c2F)c(-c2ccnc(N)n2)s1 [DABRAFENIB] | > 30 µM (inactive) | > 30 µM (inactive) | > 30 µM (inactive) | > 30 µM (inactive) |  | > 30 µM (inactive) | > 30 µM (inactive)
FC(F)(F)c1ccc(/C=C/c2nc(COc3ccc(CCCCn4ccnn4)cc3)co2)cc1 [MUBRITINIB] | > 30 µM (inactive) | > 30 µM (inactive) | 1.77 µM (active) |  | > 30 µM (inactive) | > 30 µM (inactive) | > 30 µM (inactive)

Results, then the molecule that gave them:

Kd [1] | Kd [2] | Kd [3] | Kd [4] | Kd [5] | Kd [6] | Kd [7] | Compound
> 30 µM (inactive) | > 30 µM (inactive) | > 30 µM (inactive) | > 30 µM (inactive) |  | > 30 µM (inactive) | > 30 µM (inactive) | CO[C@H]1C[C@@H]2CC[C@@H](C)[C@@](O)(O2)C(=O)C(=O)N2CCCC[C@H]2C(=O)O[C@H]([C@H](C)C[C@@H]2CC[C@@H](O)[C@H](OC)C2)CC(=O)[C@H](C)/C=C(\C)[C@@H](O)[C@@H](OC)C(=O)[C@H](C)C[C@H](C)/C=C/C=C/C=C/1C [SIROLIMUS]
> 30 µM (inactive) | > 30 µM (inactive) | > 30 µM (inactive) | > 30 µM (inactive) | > 30 µM (inactive) | > 30 µM (inactive) | > 30 µM (inactive) | CO[C@H]1C[C@@H]2CC[C@@H](C)[C@@](O)(O2)C(=O)C(=O)N2CCCC[C@H]2C(=O)O[C@H]([C@H](C)C[C@@H]2CC[C@@H](OC(=O)C(C)(CO)CO)[C@H](OC)C2)CC(=O)[C@H](C)/C=C(\C)[C@@H](O)[C@@H](OC)C(=O)[C@H](C)C[C@H](C)/C=C/C=C/C=C/1C [TEMSIROLIMUS]
